We go through one molecule from patent publication US4486593A, “2-,3-, or 4-Pyridinylmethylamino arylic acids as thromboxane A2 synthetase and 5-lipoxygenase inhibitors” (The Upjohn Company, priority 1983, dated 1984).

The subject of the test is 5-lipoxygenase. The experiment in a line: 5-lipoxygenase inhibition: oxygen uptake of washed human platelets after arachidonic acid (oxygraph cells). The test is classed as cell-based. The conditions noted are these: arachidonic acid added to washed human platelets; oxygen uptake versus control cell; read-out: approximate ED50, 5-lipoxygenase inhibition (decrease of oxygen uptake). On the procedure: The compounds of the present invention were also tested for 5-lipoxygenase inhibition. Arachidonic acid is added to washed human platlets and the oxygen uptake is measured using oxygraph cells. A decrease of oxygen uptake versus the control cell indicates inhibition of lipoxygenase. For a fuller description of the procedure see, Wallach, et al., Biochim. Biophys. Acta. 231:445 (1976).

For the molecule `COC(=O)c1cc(NCc2cccnc2)ccc1O` [Example 3, 5-(3-Pyridinylmethylamino)salicylic Acid, Methyl Ester], the IC50 was roughly 10 µM.
